Patent US20070128217A1 (priority 2003, published 2007)

Columns and labels:
[1] = test system: control sera (pooled serum of ten healthy LUMC hospital workers; commercial negative donor pooled serum from the Dutch bloodbank); assay type: binding, human; set-up: Binding of Control serum LUMC to linear peptides / Binding of Control serum Blood-bank to linear peptides / Binding of Control serum LUMC to looped peptides / Binding of Control Serum Blood-Bank to Looped peptides / Binding of Control serum LUMC to linear peptides of the protein M of SARS-CoV Urbani / Binding of Control serum Blood-bank to linear peptides of the protein M of SARS-CoV Urbani / Binding of Control serum LUMC to looped peptides of the protein M of SARS-CoV Urbani / Binding of Control Serum Blood-Bank to Looped peptides of the protein M of SARS-CoV Urbani: unit not given here
[2] = test system: rabbit serum obtained by immunizing a rabbit with the SARS-CoV strain Frankfurt 1; assay type: binding; set-up: Binding of a rabbit serum to linear peptides / Binding of a rabbit serum to looped peptides / Rabbit serum linear peptides / Rabbit serum looped peptides / Binding of a rabbit serum to linear peptides of protein N of SARS-CoV Urbani (Rabbit serum linear peptides) / Binding of a rabbit serum to looped/cyclic peptides of protein N of SARS-CoV Urbani (Rabbit serum looped peptides): unit not given here

Sequence | Binding of Control Serum Blood-Bank to Looped peptides [1] | Binding of Control serum Blood-bank to linear peptides [1] | Binding of Control serum LUMC to linear peptides [1] | Binding of Control serum LUMC to looped peptides [1] | Binding of a rabbit serum to linear peptides [2] | Binding of a rabbit serum to looped peptides [2] | Rabbit serum linear peptides [2] | Rabbit serum looped peptides [2] | Binding of Control Serum Blood-Bank to Looped peptides of the protein M of SARS-CoV Urbani [1] | Binding of Control serum Blood-bank to linear peptides of the protein M of SARS-CoV Urbani [1] | Binding of Control serum LUMC to linear peptides of the protein M of SARS-CoV Urbani [1] | Binding of Control serum LUMC to looped peptides of the protein M of SARS-CoV Urbani [1] | Binding of Control Serum Blood-Bank to Looped peptides of the protein X3 of SARS-CoV Urbani [1] | Binding of Control serum Blood-bank to linear peptides of the protein X3 of SARS-CoV Urbani [1] | Binding of Control serum LUMC to linear peptides of the protein X3 of SARS-CoV Urbani [1] | Binding of Control serum LUMC to looped peptides of the protein X3 of SARS-CoV Urbani [1]
HSGVKDYVVVHGYFT | 2.2 | 0.7 | 0.8 | 2.3 | 0.1 | 0.6 |  |  |  |  |  |  |  |  |  | 
HTMVQTCTPNVTINC | 0.8 | 0.9 | 0.7 | 0.6 |  |  | 0.4 | 0.2 |  |  |  |  |  |  |  | 
IGGYSEDRHSGVKDY | 0.7 | 0.4 | 0.5 | 0.6 | 0.1 | 0.6 |  |  |  |  |  |  |  |  |  | 
IGNYKLNTDHAGSND |  |  |  |  |  |  | 0.5 | 0.0 | 0.7 | 0.5 | 0.3 | 0.8 |  |  |  | 
IIMRTFRIAIWNLDV |  |  |  |  |  |  | 0.3 | 0.5 |  |  |  |  | 0.9 | 0.9 | 0.7 | 0.6
IISSIVRQLFKPLTK |  |  |  |  |  |  | 0.6 | 0.4 |  |  |  |  | 0.6 | 0.8 | 0.8 | 0.6
ILIIIMRTFRIAIWN |  |  |  |  |  |  | 0.5 | 0.6 |  |  |  |  | 0.7 | 0.8 | 0.5 | 0.3
ISTPKLKEDYQIGGY | 0.7 | 0.7 | 1.0 | 0.5 | 0.1 | 0.4 |  |  |  |  |  |  |  |  |  | 
ITAQPVKIDNASPAS | 0.5 | 0.7 | 0.7 | 0.5 | 0.1 | 0.3 |  |  |  |  |  |  |  |  |  | 
IVNVSLVKPTVYVYS | 0.9 | 0.7 | 0.4 | 0.9 | 0.5 | 0.5 |  |  |  |  |  |  |  |  |  | 
KEDYQIGGYSEDRHS | 0.3 | 0.5 | 0.5 | 0.4 | 0.1 | 0.5 |  |  |  |  |  |  |  |  |  | 
KIDNASPASTVHATA | 0.6 | 0.6 | 0.7 | 0.7 | 0.2 | 0.3 |  |  |  |  |  |  |  |  |  | 
KKNYSELDDEEPMEL |  |  |  |  |  |  | 0.1 | 0.0 |  |  |  |  | 0.6 | 0.5 | 0.4 | 0.9
KLGASQRVGTDSGFA |  |  |  |  |  |  | 0.1 | 0.1 | 0.8 | 0.9 | 0.9 | 0.9 |  |  |  | 
KLVVILRIGTQVLKT | 0.7 | 0.8 | 0.4 | 0.6 | 0.5 | 0.5 |  |  |  |  |  |  |  |  |  | 
LADNKFALTCTSTHF | 0.7 | 0.7 | 0.7 | 0.7 |  |  | 0.5 | 0.5 |  |  |  |  |  |  |  | 
LFKPLTKKNYSELDD |  |  |  |  |  |  | 0.3 | 0.4 |  |  |  |  | 0.8 | 0.7 | 0.6 | 0.9
LGASQRVGTDSGFAA |  |  |  |  |  |  | 0.3 | 0.1 | 0.6 | 0.9 | 0.5 | 0.8 |  |  |  | 
LGSITAQPVKIDNAS | 0.4 | 0.4 | 0.5 | 0.4 | 0.3 | 0.4 |  |  |  |  |  |  |  |  |  | 
LKEDYQIGGYSEDRH | 0.4 | 0.5 | 0.5 | 0.5 | 0.1 | 0.7 |  |  |  |  |  |  |  |  |  | 
LNTDHAGSNDNIALL |  |  |  |  |  |  | 0.0 | 0.3 | 0.7 | 0.6 | 0.7 | 0.9 |  |  |  | 
LRIGTQVLKTMSLYM | 0.7 | 0.6 | 0.4 | 0.7 | 0.4 | 0.4 |  |  |  |  |  |  |  |  |  | 
LRMAGHPLGRCDIKD |  |  |  |  |  |  | 0.3 | 0.1 | 0.8 | 0.7 | 0.5 | 0.8 |  |  |  | 
